From patent publication US7632857B2, “Histamine H3 receptor agents, preparation and therapeutic uses” (Eli Lilly and Company, priority 2004, dated 2009)

Target: T1, H3R (Homo sapiens, UniProt Q9Y5N1)
T1 construct: expressed in transfected cells; pcDNA3.1(+) vector, G418 selection)
Assay: [35S] GTP γ [S] binding assay, antagonist activity in the presence of agonist
Assay type: biochemical
Settings: membranes from H3R8-expressing HEK293 cell line; agonist R(−)alpha methylhistamine
Procedure: Membranes isolated as described in (Preparation of Histamine Receptor Subtype Membranes) were used in a [35S]GTPχS functional assay. Binding of [35S]GTPχS to membranes indicates agonist activity. Compounds of the invention of Formula I or Formula II were tested for their ability to inhibit binding in the presence of agonists. Alternately, the same transfected cell lines were used for a cAMP assay wherein H3R agonists inhibited forskolin-activated synthesis of cAMP. Compounds of Formula I or Formula II were tested for their ability to permit forskolin-stimulated cAMP synthesis in the presence of agonist.
cDNA for the human histamine 3 receptor was cloned and expressed as described in (A. Preparation H1R membranes), above. Transfected cells were selected using G418 (500μ/ml), grown, and tested for histamine binding by the SPA described above. For total binding, cells were assayed in a SPA reaction described above containing 50 mM Tris-HCL (assay buffer), pH 7.6, 1 mg wheat germ agglutinin SPA beads (Amersham Pharmacia Biotech, #RPNQ0001), and 1 nM (3H)-n-alpha-methylhistamine (NEN, NET1027) (total volume per well=200 μl). Thioperimide was added to determine non-specific binding. […]
Antagonist activity of selected compounds was tested for inhibition of [35S] […] Plates were counted in Wallac Trilux 1450 Microbeta scintillation counter for 1 minute. […]

T1 sequence (Q9Y5N1 whole entry): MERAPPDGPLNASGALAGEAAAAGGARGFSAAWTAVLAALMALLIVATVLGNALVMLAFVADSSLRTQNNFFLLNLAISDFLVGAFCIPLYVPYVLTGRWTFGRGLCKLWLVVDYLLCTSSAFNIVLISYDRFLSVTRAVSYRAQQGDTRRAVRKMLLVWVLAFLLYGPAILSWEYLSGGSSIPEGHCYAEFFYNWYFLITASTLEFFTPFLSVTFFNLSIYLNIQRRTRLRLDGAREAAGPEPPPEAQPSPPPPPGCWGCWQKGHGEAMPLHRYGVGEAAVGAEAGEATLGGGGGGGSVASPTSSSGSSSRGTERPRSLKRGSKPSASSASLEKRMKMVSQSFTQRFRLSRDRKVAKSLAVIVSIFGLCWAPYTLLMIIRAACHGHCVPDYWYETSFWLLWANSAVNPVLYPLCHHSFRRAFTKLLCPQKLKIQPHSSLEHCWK

SMILES	Ki [µM]
O=C(c1ccc(-c2ccc(OCCN3CCCCC3)cc2)cc1)N1CCC[C@H]1CN1CCCC1	0.032
O=C(c1ccc(-c2ccccn2)cc1)N1CCC[C@H]1CN1CCCC1	0.0049
